Columns and labels:
velvetleaf [1] = assay: Test Example 5: herbicidal effect by foliage application, plastic box (Table 20, symbol M); format: in vivo, velvetleaf (Abutilon theophrasti); settings: foliage application, AAH 320 g/ha, three weeks after application
In short: (§1)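 Plants were sown into sterilized diluvial soil under about 1.5 cm cover and kept in a greenhouse at 25° C. to 30° C. Fourteen days on, foliage received an even spray of the diluted emulsion. Herbicidal or crop effect was judged three weeks afterwards.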

blackgrass [2] = assay: Test Example 5: herbicidal effect by foliage application, plastic box (Table 20, symbol J); format: in vivo, blackgrass (Alopecurus myosuroides); settings: foliage application, AAH 320 g/ha, three weeks after application
In short: as §1

Italian ryegrass [3] = assay: Test Example 4: herbicidal effect by soil treatment (Table 19, symbol K); format: in vivo, Italian ryegrass (Lolium multiflorum); settings: AAH 320 g/ha
In short: (§2)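 Pre-emergence style soil spray: seeds under ~1.5 cm sterilized diluvial soil received a uniform coat of emulsion diluted to the predetermined herbicide amount. Greenhouse 25–30° C; readout at week three on previously defined criteria.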

persian speedwell [4] = assay: Test Example 4: herbicidal effect by soil treatment (Table 19, symbol R); format: in vivo, Persian speedwell (Veronica persica); settings: AAH 320 g/ha
In short: as §2

chickweed [5] = assay: Test Example 4: herbicidal effect by soil treatment (Table 19, symbol P); format: in vivo, common chickweed (Stellaria media); settings: AAH 320 g/ha
In short: as §2

rice flat sedge = assay: Test Example 3: herbicidal effect by foliage application, Wagner pot (Table 18, symbol E); format: in vivo, rice flat sedge (Cyperus iria); settings: 320 g/ha
In short: (§3)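 Plants were sown in alluvial soil held under 0.1–0.5 cm standing water and grown 14 days in a greenhouse at 25–30 °C. An emulsifiable formulation, water-diluted to the set dose, was then sprayed onto the foliage, and effects were scored three weeks later using previously defined criteria.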

green foxtail [6] = assay: Test Example 4: herbicidal effect by soil treatment (Table 19, symbol G); format: in vivo, green foxtail (Setaria viridis); settings: AAH 320 g/ha
In short: as §2

Chinese sprangletop = assay: Test Example 3: herbicidal effect by foliage application, Wagner pot (Table 18, symbol D); format: in vivo, chinese sprangletop (Leptochloa chinensis); settings: 320 g/ha
In short: as §3

Italian ryegrass [7] = assay: Test Example 5: herbicidal effect by foliage application, plastic box (Table 20, symbol K); format: in vivo, Italian ryegrass (Lolium multiflorum); settings: foliage application, AAH 320 g/ha, three weeks after application
In short: as §1

redroot pigweed [8] = assay: Test Example 5: herbicidal effect by foliage application, plastic box (Table 20, symbol N); format: in vivo, redroot pigweed (Amaranthus retroflexus); settings: foliage application, AAH 320 g/ha, three weeks after application
In short: as §1

blackgrass [9] = assay: Test Example 4: herbicidal effect by soil treatment (Table 19, symbol J); format: in vivo, blackgrass (Alopecurus myosuroides); settings: AAH 320 g/ha
In short: as §2

persian speedwell [10] = assay: Test Example 5: herbicidal effect by foliage application, plastic box (Table 20, symbol R); format: in vivo, Persian speedwell (Veronica persica); settings: foliage application, AAH 320 g/ha, three weeks after application
In short: as §1

wild oat [11] = assay: Test Example 5: herbicidal effect by foliage application, plastic box (Table 20, symbol I); format: in vivo, wild oat (Avena fatua); settings: foliage application, AAH 320 g/ha, three weeks after application
In short: as §1

barnyard grass [12] = assay: Test Example 5: herbicidal effect by foliage application, plastic box (Table 20, symbol H); format: in vivo, barnyard grass (Echinochloa crus-galli); settings: foliage application, AAH 320 g/ha, three weeks after application
In short: as §1

green foxtail [13] = assay: Test Example 5: herbicidal effect by foliage application, plastic box (Table 20, symbol G); format: in vivo, green foxtail (Setaria viridis); settings: foliage application, AAH 320 g/ha, three weeks after application
In short: as §1

lambsquarters [14] = assay: Test Example 5: herbicidal effect by foliage application, plastic box (Table 20, symbol O); format: in vivo, lambsquarters (Chenopodium album); settings: foliage application, AAH 320 g/ha, three weeks after application
In short: as §1

wild oat [15] = assay: Test Example 4: herbicidal effect by soil treatment (Table 19, symbol I); format: in vivo, wild oat (Avena fatua); settings: AAH 320 g/ha
In short: as §2

southern crabgrass [16] = assay: Test Example 4: herbicidal effect by soil treatment (Table 19, symbol F); format: in vivo, southern crabgrass (Digitaria ciliaris); settings: AAH 320 g/ha
In short: as §2

southern crabgrass [17] = assay: Test Example 5: herbicidal effect by foliage application, plastic box (Table 20, symbol F); format: in vivo, southern crabgrass (Digitaria ciliaris); settings: foliage application, AAH 320 g/ha, three weeks after application
In short: as §1

windgrass [18] = assay: Test Example 4: herbicidal effect by soil treatment (Table 19, symbol L); format: in vivo, windgrass (Apera spica-venti); settings: AAH 320 g/ha
In short: as §2

lambsquarters [19] = assay: Test Example 4: herbicidal effect by soil treatment (Table 19, symbol O); format: in vivo, lambsquarters (Chenopodium album); settings: AAH 320 g/ha
In short: as §2

velvetleaf [20] = assay: Test Example 4: herbicidal effect by soil treatment (Table 19, symbol M); format: in vivo, velvetleaf (Abutilon theophrasti); settings: AAH 320 g/ha
In short: as §2

barnyard grass [21] = assay: Test Example 4: herbicidal effect by soil treatment (Table 19, symbol H); format: in vivo, barnyard grass (Echinochloa crus-galli); settings: AAH 320 g/ha
In short: as §2

windgrass [22] = assay: Test Example 5: herbicidal effect by foliage application, plastic box (Table 20, symbol L); format: in vivo, windgrass (Apera spica-venti); settings: foliage application, AAH 320 g/ha, three weeks after application
In short: as §1

barnyard grass [23] = assay: Test Example 3: herbicidal effect by foliage application, Wagner pot (Table 18, symbol H); format: in vivo, barnyard grass (Echinochloa crus-galli); settings: 320 g/ha
In short: as §3

chickweed [24] = assay: Test Example 5: herbicidal effect by foliage application, plastic box (Table 20, symbol P); format: in vivo, common chickweed (Stellaria media); settings: foliage application, AAH 320 g/ha, three weeks after application
In short: as §1

redroot pigweed [25] = assay: Test Example 4: herbicidal effect by soil treatment (Table 19, symbol N); format: in vivo, redroot pigweed (Amaranthus retroflexus); settings: AAH 320 g/ha
In short: as §2

`C=Cc1ccc(-c2sc3ccccc3c2-c2c(O)c(C)nn(C)c2=O)cc1` [1-127] was tested, and the “M: velvetleaf, herbicidal effect” value (velvetleaf [1]) was 5 (Herbicidal rate of 90% or more (almost completely withered)), the “J: blackgrass, herbicidal effect” value (blackgrass [2]) was 1 (Herbicidal rate of 5% or more and less than 20%) and the “K: Italian ryegrass, herbicidal effect rating” value (Italian ryegrass [3]) was 5 (Herbicidal rate of 90% or more (almost completely withered)). The “R: persian speedwell, herbicidal effect rating” value (persian speedwell [4]) was 4 (Herbicidal rate of 70% or more and less than 90%), the “P: chickweed, herbicidal effect rating” value (chickweed [5]) was 0 (Herbicidal rate of 5% or less (almost no effect)) and the “herbicidal effect on E (rice flat sedge), rating 0-5” value (rice flat sedge) was 5 (Herbicidal rate of 90% or more (almost completely withered)). The “G: green foxtail, herbicidal effect rating” value (green foxtail [6]) was 0 (Herbicidal rate of 5% or less (almost no effect)), the “herbicidal effect on D (Chinese sprangletop), rating 0-5” value (Chinese sprangletop) was 3 (Herbicidal rate of 40% or more and less than 70%) and the “K: Italian ryegrass, herbicidal effect” value (Italian ryegrass [7]) was 5 (Herbicidal rate of 90% or more (almost completely withered)). The “N: redroot pigweed, herbicidal effect” value (redroot pigweed [8]) was 5 (Herbicidal rate of 90% or more (almost completely withered)), the “J: blackgrass, herbicidal effect rating” value (blackgrass [9]) was 0 (Herbicidal rate of 5% or less (almost no effect)) and the “R: persian speedwell, herbicidal effect” value (persian speedwell [10]) was 5 (Herbicidal rate of 90% or more (almost completely withered)). For the same compound, the “I: wild oat, herbicidal effect” value (wild oat [11]) was 0 (Herbicidal rate of 5% or less (almost no effect)), the “H: barnyard grass, herbicidal effect” value (barnyard grass [12]) was 4 (Herbicidal rate of 70% or more and less than 90%) and the “G: green foxtail, herbicidal effect” value (green foxtail [13]) was 4 (Herbicidal rate of 70% or more and less than 90%). For the same compound, the “O: lambsquarters, herbicidal effect” value (lambsquarters [14]) was 5 (Herbicidal rate of 90% or more (almost completely withered)), the “I: wild oat, herbicidal effect rating” value (wild oat [15]) was 0 (Herbicidal rate of 5% or less (almost no effect)) and the “F: southern crabgrass, herbicidal effect rating” value (southern crabgrass [16]) was 0 (Herbicidal rate of 5% or less (almost no effect)). For the same compound, the “F: southern crabgrass, herbicidal effect” value (southern crabgrass [17]) was 2 (Herbicidal rate of 20% or more and less than 40%), the “L: windgrass, herbicidal effect rating” value (windgrass [18]) was 0 (Herbicidal rate of 5% or less (almost no effect)) and the “O: lambsquarters, herbicidal effect rating” value (lambsquarters [19]) was 4 (Herbicidal rate of 70% or more and less than 90%). For the same compound, the “M: velvetleaf, herbicidal effect rating” value (velvetleaf [20]) was 2 (Herbicidal rate of 20% or more and less than 40%), the “H: barnyard grass, herbicidal effect rating” value (barnyard grass [21]) was 0 (Herbicidal rate of 5% or less (almost no effect)) and the “L: windgrass, herbicidal effect” value (windgrass [22]) was 5 (Herbicidal rate of 90% or more (almost completely withered)). The “herbicidal effect on H (barnyard grass), rating 0-5” value (barnyard grass [23]) was 0 (Herbicidal rate of 5% or less (almost no effect)), the “P: chickweed, herbicidal effect” value (chickweed [24]) was 5 (Herbicidal rate of 90% or more (almost completely withered)) and the “N: redroot pigweed, herbicidal effect rating” value (redroot pigweed [25]) was 5 (Herbicidal rate of 90% or more (almost completely withered)).

From patent US20230085307A1, “PYRIDAZINONE COMPOUND AND HERBICIDE” (NISSAN CHEMICAL CORPORATION, priority 2019, published 2023)
